In patent publication US7754880B2, “Uracils having a herbicidal activity” (Isagro Ricerca S.r.l., priority 2002, dated 2010):

SMILES	melting point [°C]
COC(=O)Cn1nnnc1-c1cc(-n2c(=O)cc(C(F)(F)F)n(C)c2=O)ccc1Cl [Compound No 18, methyl (5-{2-chloro-5-[1,2,3,6-tetrahydro-3-methyl-2,6-dioxo-4-(trifluoromethyl)pyrimidin-1-yl]phenyl}-1H-tetrazol-1-yl)acetate]	130
CCn1nnc(COc2cc(-n3c(=O)cc(C(F)(F)F)n(C)c3=O)c(F)cc2Cl)n1 [Compound No 8, 3-{4-chloro-2-fluoro-5-[(2-ethyl-2H-tetrazol-5-yl)methoxy]phenyl}-1-methyl-6-(trifluoromethyl)-2,4(1H,3H)-pyrimidinedione]	126
CCOCn1nnnc1-c1cc(-n2c(=O)cc(C(F)(F)F)n(C)c2=O)ccc1Cl [Compound No 104, 3-{4-chloro-3-[1-(ethoxymethyl)-1H-tetrazol-5-yl]phenyl}-1-methyl-6-(trifluoromethyl)-2,4(1H,3H)-pyrimidinedione]	157
CCOC(=O)/C=C(\COc1cc(-n2c(=O)cc(C(F)(F)F)n(C)c2=O)c(F)cc1Cl)OC [Compound No 100, ethyl (2E)-4-{2-chloro-4-fluoro-5-[1,2,3,6-tetrahydro-3-methyl-2,6-dioxo-4-(trifluoromethyl)pyrimidin-1-yl]phenoxy}-3-methoxybut-2-enoate]	78
Cn1c(C(F)(F)F)cc(=O)n(-c2cc(Oc3nnc(C(F)(F)F)s3)c(Cl)cc2Cl)c1=O [Compound No 84, 3-(2,4-dichloro-5-{[5-(trifluoromethyl)-1,3,4-thiadiazol-2-yl]oxy}phenyl)-1-methyl-6-(trifluoromethyl)-2,4(1H,3H)-pyrimidinedione]	90
Cn1c(C(F)(F)F)cc(=O)n(-c2ccc(Cl)c(-c3nnn(C(C)(C)C)n3)c2)c1=O [Compound No 118, 3-[3-(2-tert-butyl-2H-tetrazol-5-yl)-4-chlorophenyl]-1-methyl-6-(trifluoromethyl)-2,4(1H,3H)-pyrimidinedione]	154
CC(C)n1nnc(-c2cc(-n3c(=O)cc(C(F)(F)F)n(C)c3=O)ccc2Cl)n1 [Compound No 134, 3-[4-chloro-3-(2-isopropyl-2H-tetrazol-5-yl)phenyl]-1-methyl-6-(trifluoromethyl)-2,4(1H,3H)-pyrimidinedione]	147
CCOC(=O)c1sc(-c2cc(-n3c(=O)cc(C(F)(F)F)n(C)c3=O)ccc2Cl)nc1C [Compound No 131, ethyl 2-{2-chloro-5-[1,2,3,6-tetrahydro-3-methyl-2,6-dioxo-4-(trifluoromethyl)pyrimidin-1-yl]phenyl}-4-methyl-1,3-thiazole-5-carboxylate]	200
CCCCn1nnc(-c2cc(-n3c(=O)cc(C(F)(F)F)n(C)c3=O)ccc2Cl)n1 [Compound No 157, 3-[3-(2-butyl-2H-tetrazol-5-yl)-4-chlorophenyl]-1-methyl-6-(trifluoromethyl)-2,4(1H,3H)-pyrimidinedione]	108
CCOC(=O)c1csc(-c2cc(-n3c(=O)cc(C(F)(F)F)n(C)c3=O)ccc2Cl)n1 [Compound No 156, ethyl 2-{2-chloro-5-[1,2,3,6-tetrahydro-3-methyl-2,6-dioxo-4-(trifluoromethyl)pyrimidin-1-yl]phenyl}-1,3-thiazole-4-carboxylate]	197
CCOC(=O)/C=C(\COc1cc(-n2c(=O)cc(C(F)(F)F)n(C)c2=O)c(Cl)cc1Cl)OC [Compound No 99, ethyl (2E)-4-{2,4-dichloro-5-[1,2,3,6-tetrahydro-3-methyl-2,6-dioxo-4-(trifluoromethyl)pyrimidin-1-yl]phenoxy}-3-methoxybut-2-enoate]	128
Cn1nnnc1-c1cc(-n2c(=O)cc(C(F)(F)F)n(C)c2=O)ccc1Cl [Compound No 14, 3-[4-chloro-3-(1-methyl-1H-tetrazol-5-yl)phenyl]-1-methyl-6-(trifluoromethyl)-2,4(1H,3H)-pyrimidinedione]	185
C=CCn1nnnc1-c1cc(-n2c(=O)cc(C(F)(F)F)n(C)c2=O)ccc1Cl [Compound No 106, 3-[3-(1-allyl-1H-tetrazol-5-yl)-4-chlorophenyl]-1-methyl-6-(trifluoromethyl)-2,4(1H,3H)-pyrimidinedione]	160
Cn1c(C(F)(F)F)cc(=O)n(-c2ccc(Cl)c(-c3nnn(CC(N)=O)n3)c2)c1=O [Compound No 126, 2-(5-{2-chloro-5-[1,2,3,6-tetrahydro-3-methyl-2,6-dioxo-4-(trifluoromethyl)pyrimidin-1-yl]phenyl}-2H-tetrazol-2-yl)acetamide]	200
CN(C)C(=O)Cn1nnc(-c2cc(-n3c(=O)cc(C(F)(F)F)n(C)c3=O)ccc2Cl)n1 [Compound No 125, 2-(5-{2-chloro-5-[1,2,3,6-tetrahydro-3-methyl-2,6-dioxo-4-(trifluoromethyl)pyrimidin-1-yl]phenyl}-2H-tetrazol-2-yl)-N,N-dimethylacetamide]	208
COCn1nnc(-c2cc(-n3c(=O)cc(C(F)(F)F)n(C)c3=O)ccc2Cl)n1 [Compound No 101, 3-{4-chloro-3-[2-(methoxymethyl)-2H-tetrazol-5-yl]phenyl}-1-methyl-6-(trifluoromethyl)-2,4(1H,3H)-pyrimidinedione]	80
COC(=O)Cn1nnc(-c2cc(-n3c(=O)cc(C(F)(F)F)n(C)c3=O)ccc2Cl)n1 [Compound No 17, methyl (5-{2-chloro-5-[1,2,3,6-tetrahydro-3-methyl-2,6-dioxo-4-(trifluoromethyl)pyrimidin-1-yl]phenyl}-2H-tetrazol-2-yl)acetate]	172
CCn1nnnc1COc1cc(-n2c(=O)cc(C(F)(F)F)n(C)c2=O)c(F)cc1Cl [Compound No 9, 3-{4-chloro-2-fluoro-5-[(1-ethyl-1H-tetrazol-5-yl)methoxy]phenyl}-1-methyl-6-(trifluoromethyl)-2,4(1H,3H)-pyrimidinedione]	60
COCn1nnnc1-c1cc(-n2c(=O)cc(C(F)(F)F)n(C)c2=O)ccc1Cl [Compound No 102, 3-{4-chloro-3-[1-(methoxymethyl)-1H-tetrazol-5-yl]phenyl}-1-methyl-6-(trifluoromethyl)-2,4(1H,3H)-pyrimidinedione]	182
Cc1cc(COc2cc(-n3c(=O)cc(C(F)(F)F)n(C)c3=O)c(Cl)cc2Cl)on1 [Compound No 108, 3-{2,4-dichloro-5-[(3-methylisoxazol-5-yl)methoxy]phenyl}-1-methyl-6-(trifluoromethyl)-2,4(1H,3H)-pyrimidinedione]	185

Next, values leading:

melting point [°C]	SMILES
189	Cn1c(C(F)(F)F)cc(=O)n(-c2ccc(Cl)c(-c3nc4ccccc4s3)c2)c1=O [Compound No 113, 3-[3-(1,3-benzothiazol-2-yl)-4-chlorophenyl]-1-methyl-6-(trifluoromethyl)-2,4(1H,3H)-pyrimidinedione]
183	Cn1c(C(F)(F)F)cc(=O)n(-c2ccc(Cl)c(-c3nc4ccccc4o3)c2)c1=O [Compound No 114, 3-[3-(1,3-benzoxazol-2-yl)-4-chlorophenyl]-1-methyl-6-(trifluoromethyl)-2,4(1H,3H)-pyrimidinedione]
195	Cn1c(C(F)(F)F)cc(=O)n(-c2cc(-c3nc4ccccc4s3)c(Cl)cc2Cl)c1=O [Compound No 123, 3-[5-(1,3-benzothiazol-2-yl)-2,4-dichlorophenyl]-1-methyl-6-(trifluoromethyl)-2,4(1H,3H)-pyrimidinedione]
178	Cn1c(C(F)(F)F)cc(=O)n(-c2cc(-c3nc4ccccc4o3)c(Cl)cc2F)c1=O [Compound No 122, 3-[5-(1,3-benzoxazol-2-yl)-4-chloro-2-fluorophenyl]-1-methyl-6-(trifluoromethyl)-2,4(1H,3H)-pyrimidinedione]
167	CC(C)Cc1csc(-c2cc(-n3c(=O)cc(C(F)(F)F)n(C)c3=O)c(Cl)cc2Cl)n1 [Compound No 129, 3-[2,4-dichloro-5-(4-isobutyl-1,3-thiazol-2-yl)phenyl]-1-methyl-6-(trifluoromethyl) 2,4(1H,3H)-pyrimidinedione]
167	Cn1nnc(COc2cc(-n3c(=O)cc(C(F)(F)F)n(C)c3=O)c(F)cc2Cl)n1 [Compound No 42, 3-{4-chloro-2-fluoro-5-[(2-methyl-2H-tetrazol-5-yl)methoxy]phenyl}-1-methyl-6-(trifluoromethyl)-2,4(1H,3H)-pyrimidinedione]
142	Cn1c(C(F)(F)F)cc(=O)n(-c2cc(OCc3cc(C(C)(C)C)no3)c(Cl)cc2F)c1=O [Compound No 132, 3-{5-[(3-tert-butylisoxazol-5-yl)methoxy]-4-chloro-2-fluorophenyl}-1-methyl-6-(trifluoromethyl)-2,4(1H,3H)-pyrimidinedione]
128	CC(C)c1cc(COc2cc(-n3c(=O)cc(C(F)(F)F)n(C)c3=O)c(F)cc2Cl)on1 [Compound No 133, 3-{4-chloro-2-fluoro-5-[(3-isopropylisoxazol-5-yl)methoxy]phenyl}-1-methyl-6-(trifluoromethyl)-2,4(1H,3H)-pyrimidinedione]
200	Cc1ccc2nc(-c3cc(-n4c(=O)cc(C(F)(F)F)n(C)c4=O)c(Cl)cc3Cl)oc2c1 [Compound No 124, 3-[2,4-dichloro-5-(6-methyl-1,3-benzoxazol-2-yl)phenyl]-1-methyl-6-(trifluoromethyl) 2,4(1H,3H)-pyrimidinedione]
211	Cn1c(C(F)(F)F)cc(=O)n(-c2cc(-c3nc4ccccc4s3)c(Cl)cc2F)c1=O [Compound No 119, 3-[5-(1,3-benzothiazol-2-yl)-4-chloro-2-fluorophenyl]-1-methyl-6-(trifluoromethyl)-2,4(1H,3H)-pyrimidinedione]
82	Cn1c(C(F)(F)F)cc(=O)n(-c2cc(OCc3nnn[nH]3)c(Cl)cc2F)c1=O [Compound No 7, 3-[4-chloro-2-fluoro-5-(tetrazol-5-ylmethoxy)phenyl]-1-methyl-6-(trifluoromethyl)-2,4(1H,3H)-pyrimidinedione]
